In patent publication US11767323B2, “Tricyclic pyridone compounds as JAK2 V617F inhibitors” (Incyte Corporation, priority 2020, dated 2023):

Key:
[1] = molecular target: pseudo-kinase domain (JH2, amino-acids 536-812) of human Wild Type JAK2 (Homo sapiens (Human), UniProt O60674, F794H/W659A/W777A); test: JAK2 LanthaScreen JH2-WT Binding Assay; conditions: JAK2 JH2-WT 0.145 nM, 50 nM tracer, 1 hour at 25° C.; read-out: JH2 BIND WT IC50
Experimental: Example B. JAK2 LanthaScreen JH2-WT Binding Assay
(§1) JAK2 JH2-WT binding assay utilizes pseudo-kinase domain (JH2, amino-acids 536-812 with 3 surface mutations W659A, W777A, F794H) of human Wild Type JAK2 expressed as C-terminal His-Avi-tagged, biotinylated protein in a baculovirus expression system (BPS Bioscience, Catalog #79463). The assay was conducted in black 384-well polystyrene plates in a final reaction volume of 20 μL. JAK2 JH2-WT (0.145 nM) was incubated with compounds (100 nL serially diluted in DMSO) in the presence of 50 nM Fluorescent JAK2-JH2 Tracer (MedChem Express Catalog #HY-102055) and 0.25 nM Streptavidin-Tb cryptate (Cisbio Part #610SATLB) in assay buffer (50 mM Tris, pH=7.5, 10 mM MgCl2, 0.01% Brij-35, 0.1% BSA, 1 mM EGTA, 5% Glycerol and 5 mM DTT). Non-specific binding was accessed in the presence of 2 mM ATP. After incubation for 1 hour at 25° C., LanthaScreen signals were read on a PHERAstar FS plate reader (BMG LAB TECH). Data was analyzed with IDBS XLfit and GraphPad Prism 5.0 software using a four parameter dose response curve to determine IC50 for each compound.

[2] = molecular target: catalytic domain (JH1, amino acids 826-1132) of human JAK2 (Homo sapiens (Human), UniProt O60674); test: JAK2 LanthaScreen JH1 Binding Assay; conditions: JAK2 JH1 1.5 nM, 50 nM tracer, 2 hours at 25° C.; read-out: JH1 BIND IC50
Chain of catalytic domain (JH1, amino acids 826-1132) of human JAK2 (O60674 826-1132): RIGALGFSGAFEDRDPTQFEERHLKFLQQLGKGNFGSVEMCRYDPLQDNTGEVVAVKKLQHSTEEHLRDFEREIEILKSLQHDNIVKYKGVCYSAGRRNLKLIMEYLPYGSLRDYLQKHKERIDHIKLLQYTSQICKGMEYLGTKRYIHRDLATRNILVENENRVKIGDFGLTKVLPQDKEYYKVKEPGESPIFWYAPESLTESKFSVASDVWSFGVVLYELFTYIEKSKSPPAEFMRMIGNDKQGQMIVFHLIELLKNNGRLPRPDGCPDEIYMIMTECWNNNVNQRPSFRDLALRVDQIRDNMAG
Experimental: Example A. JAK2 LanthaScreen JH1 Binding Assay
JAK2 JH1 binding assay utilizes catalytic domain (JH1, amino acids 826-1132) of human JAK2 expressed as N-terminal FLAG-tagged, biotinylated protein in a baculovirus expression system (Carna Biosciences, Product #08-445-20N). The assay was conducted in black 384-well polystyrene plates in a final reaction volume of 20 μL. JAK2 JH1 (1.5 nM) was incubated with compounds (100 nL serially diluted in DMSO) in the presence of 50 nM Fluorescent JAK2-JH1 Tracer and 0.5 nM Streptavidin-Tb cryptate (Cisbio Part #610SATLB) in assay buffer (50 mM Tris, pH=7.5, 10 mM MgCl2, 0.01% Brij-35, 0.1% BSA, 1 mM EGTA, 5% Glycerol and 5 mM DTT). Non-specific binding was accessed in the presence of 2 mM ATP. After incubation for 2 hours at 25° C., LanthaScreen signals were read on a PHERAstar FS plate reader (BMG LABTECH). Data was analyzed with IDBS XLfit and GraphPad Prism 5.0 software using a four parameter dose response curve to determine IC50 for each compound.

[3] = molecular target: catalytic domain (JH1, amino acids 808-1132) of human JAK2 (Homo sapiens (Human), UniProt O60674); test: JAK2 HTRF Enzyme Activity Assay; format: biochemical; conditions: JAK2 0.015 nM, ATP (30 μM or 1 mM), 60 minutes at 25° C.
Chain of catalytic domain (JH1, amino acids 808-1132) of human JAK2 (O60674 808-1132): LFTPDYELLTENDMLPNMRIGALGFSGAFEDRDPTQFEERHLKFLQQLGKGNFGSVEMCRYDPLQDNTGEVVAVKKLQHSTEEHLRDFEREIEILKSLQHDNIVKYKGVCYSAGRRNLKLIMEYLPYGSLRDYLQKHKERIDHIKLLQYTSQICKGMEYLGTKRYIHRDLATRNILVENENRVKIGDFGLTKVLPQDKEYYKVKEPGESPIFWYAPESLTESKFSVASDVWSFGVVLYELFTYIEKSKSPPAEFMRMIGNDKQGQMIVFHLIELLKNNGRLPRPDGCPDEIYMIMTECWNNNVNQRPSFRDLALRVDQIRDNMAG
Experimental: Example D. JAK2 HTRF Enzyme Activity Assay
JAK2 enzyme activity assays utilize catalytic domain (JH1, amino acids 808-1132) of human JAK2 expressed as N-terminal His-tagged protein in a baculovirus expression system (BPS Bioscience, Catalog #40450). The assays was conducted in black 384-well polystyrene plates in a final reaction volume of 20 μL. JAK2 (0.015 nM) was incubated with compounds (100 nL serially diluted in DMSO) in the presence of ATP (30 μM or 1 mM) and 500 nM Biotin-labeled EQEDEPEGDYFEWLE (SEQ ID NO.: 1) peptide (BioSource International, custom synthesis) in assay buffer (50 mM Tris, pH=7.5, 10 mM MgCl2, 0.01% Brij-35, 0.1% BSA, 1 mM EGTA, 5% Glycerol and 5 mM DTT) for 60 minutes at 25° C. The reactions were stopped by the addition of 10 μL of detection buffer (50 mM Tris, pH 7.8, 0.5 mg/mL BSA, 150 mM NaCl), supplemented with EDTA, LANCE Eu-W1024 anti-phosphotyrosine (PY20), (PerkinElmer, Catalog #AD0067) and Streptavidin SureLight APC (PerkinElmer Catalog #CR130-100), for a final concentration of 15 mM, 1.5 nM and 75 nM, respectively. HTRF signals were read after 30 minutes incubation at room temperature on a PHERAstar FS plate reader (BMG LAB TECH). Data was analyzed with IDBS XLfit and GraphPad Prism 5.0 software using a four parameter dose response curve to determine IC50 for each compound.

[4] = molecular target: pseudo-kinase domain (JH2, amino-acids 536-812) of human V617F mutant JAK2 (Homo sapiens (Human), UniProt O60674, F794H/V617F/W659A/W777A); test: JAK2 LanthaScreen JH2-V617F Binding Assay; conditions: JAK2 JH2-V617F 0.26 nM, 50 nM tracer, 1 hour at 25° C.; read-out: JH2 BIND V617F IC50
Chain of pseudo-kinase domain (JH2, amino-acids 536-812) of human V617F mutant JAK2 (O60674 536-812 V617F/W659A/W777A/F794H): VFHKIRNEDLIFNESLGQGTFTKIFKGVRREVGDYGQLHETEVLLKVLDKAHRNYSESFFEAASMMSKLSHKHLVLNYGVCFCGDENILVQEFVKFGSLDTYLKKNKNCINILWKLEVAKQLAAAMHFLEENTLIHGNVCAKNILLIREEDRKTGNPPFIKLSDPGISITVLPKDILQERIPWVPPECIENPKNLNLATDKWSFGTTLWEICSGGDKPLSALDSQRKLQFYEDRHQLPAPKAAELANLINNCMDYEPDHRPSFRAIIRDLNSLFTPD
Experimental: Example C. JAK2 LanthaScreen JH2-V617F Binding Assay
as §1, with “JH2-V617F” for “JH2-WT”, “V617F mutant” for “Wild Type”, “#79498).” for “#79463).”, “JH2-V617F (0.26” for “JH2-WT (0.145”, “LABTECH).” for “LAB TECH).”

Chain of pseudo-kinase domain (JH2, amino-acids 536-812) of human Wild Type JAK2 (O60674 536-812 W659A/W777A/F794H): as the sequence (O60674 536-812 V617F/W659A/W777A/F794H) above, with F82V counted along it

Row | SMILES | IC50 [1] | IC50 [2] | IC50 [3] | IC50 [4]
1 | CS(=O)(=O)C1CCN(Cc2ccc(-c3cc4c(ncc5[nH]c(=O)c(-c6ccccc6)cc54)[nH]3)cc2)CC1 [Example 1, 2-(4-((4-(Methylsulfonyl)piperidin-1-yl)methyl)phenyl)-8-phenyl-3,6-dihydro-7H-pyrrolo[3,2-f][1,7]naphthyridin-7-one] | 1000 to 10000 nM | 1000 to 10000 nM | > 10000 nM | 1000 to 10000 nM
2 | CS(=O)(=O)C1CCN(Cc2ccc(-c3cc4c(ncc5[nH]c(=O)c(-c6ccc(C(=O)O)cc6)cc54)[nH]3)cc2)CC1 [Example 2, 4-(2-(4-((4-(Methylsulfonyl)piperidin-1-yl)methyl)phenyl)-7-oxo-6,7-dihydro-3H-pyrrolo[3,2-f][1,7]naphthyridin-8-yl)benzoic acid] | ≤ 100 nM | > 10000 nM | > 10000 nM | ≤ 100 nM
3 | CS(=O)(=O)C1CCN(Cc2ccc(-c3cc4c(ncc5[nH]c(=O)c(C#N)cc54)[nH]3)cc2)CC1 [Example 3, 2-(4-((4-(Methylsulfonyl)piperidin-1-yl)methyl)phenyl)-7-oxo-6,7-dihydro-3H-pyrrolo[3,2-f][1,7]naphthyridine-8-carbonitrile] | 1000 to 10000 nM | > 10000 nM | > 10000 nM | 1000 to 10000 nM
4 | Cn1nccc1-c1cc2c(cnc3[nH]c(-c4ccc(CN5CCC(S(C)(=O)=O)CC5)cc4)cc32)[nH]c1=O [Example 4, 8-(1-Methyl-1H-pyrazol-5-yl)-2-(4-((4-(methylsulfonyl)piperidin-1-yl)methyl)phenyl)-3,6-dihydro-7H-pyrrolo[3,2-f][1,7]naphthyridin-7-one] | 1000 to 10000 nM | 1000 to 10000 nM | 1000 to 10000 nM | 1000 to 10000 nM
5 | CS(=O)(=O)C1CCN(Cc2ccc(-c3cc4c(ncc5[nH]c(=O)c(-c6nnn[nH]6)cc54)[nH]3)cc2)CC1 [Example 5, 2-(4-((4-(Methylsulfonyl)piperidin-1-yl)methyl)phenyl)-8-(1H-tetrazol-5-yl)-3,6-dihydro-7H-pyrrolo[3,2-f][1,7]naphthyridin-7-one] | 500 to 1000 nM | > 10000 nM | 1000 to 10000 nM | 1000 to 10000 nM
6 | Cc1c(-c2ccc(C(=O)O)cc2)c(=O)[nH]c2cnc3[nH]c(-c4ccc(CN5CCC(S(C)(=O)=O)CC5)cc4)cc3c12 [Example 6, 4-(9-Methyl-2-(4-((4-(methylsulfonyl)piperidin-1-yl)methyl)phenyl)-7-oxo-6,7-dihydro-3H-pyrrolo[3,2-f][1,7]naphthyridin-8-yl)benzoic acid] | ≤ 100 nM | > 10000 nM | > 10000 nM | ≤ 100 nM
7 | Cc1c(-c2ccc(-n3cnnn3)cc2)c(=O)[nH]c2cnc3[nH]c(-c4ccc(CN5CCC(S(C)(=O)=O)CC5)cc4)cc3c12 [Example 7, 8-(4-(1H-Tetrazol-1-yl)phenyl)-9-methyl-2-(4-((4-(methylsulfonyl)piperidin-1-yl)methyl)phenyl)-3,6-dihydro-7H-pyrrolo[3,2-f][1,7]naphthyridin-7-one] | 100 to 500 nM | 1000 to 10000 nM | 1000 to 10000 nM | 1000 to 10000 nM
8 | Cc1c(-c2ccc(C(=O)O)cc2)c(=O)n(C)c2cnc3[nH]c(-c4ccc(CN5CCC(S(C)(=O)=O)CC5)cc4)cc3c12 [Example 8, 4-(6,9-Dimethyl-2-(4-((4-(methylsulfonyl)piperidin-1-yl)methyl)phenyl)-7-oxo-6,7-dihydro-3H-pyrrolo[3,2-f][1,7]naphthyridin-8-yl)benzoic acid] | ≤ 100 nM | 100 to 500 nM | 100 to 500 nM | ≤ 100 nM
9 | Cc1ccc(-c2c(C)c3c4cc(-c5ccc(CN6CCC(S(C)(=O)=O)CC6)cc5)[nH]c4ncc3n(C)c2=O)cc1 [Example 9, 6,9-Dimethyl-2-(4-((4-(methylsulfonyl)piperidin-1-yl)methyl)phenyl)-8-(p-tolyl)-3,6-dihydro-7H-pyrrolo[3,2-f][1,7]naphthyridin-7-one] | ≤ 100 nM | ≤ 100 nM | ≤ 100 nM | ≤ 100 nM
10 | Cc1c(-c2ccc(Cl)cc2)c(=O)n(C)c2cnc3[nH]c(-c4ccc(CN5CCC(S(C)(=O)=O)CC5)cc4)cc3c12 [Example 10, 8-(4-Chlorophenyl)-6,9-dimethyl-2-(4-((4-(methylsulfonyl)piperidin-1-yl)methyl)phenyl)-3,6-dihydro-7H-pyrrolo[3,2-f][1,7]naphthyridin-7-one] | ≤ 100 nM | 100 to 500 nM | 100 to 500 nM | ≤ 100 nM
11 | Cc1c(-c2cccc(Cl)c2)c(=O)n(C)c2cnc3[nH]c(-c4ccc(CN5CCC(S(C)(=O)=O)CC5)cc4)cc3c12 [Example 11, 8-(3-Chlorophenyl)-6,9-dimethyl-2-(4-((4-(methylsulfonyl)piperidin-1-yl)methyl)phenyl)-3,6-dihydro-7H-pyrrolo[3,2-f][1,7]naphthyridin-7-one] | ≤ 100 nM | ≤ 100 nM | ≤ 100 nM | ≤ 100 nM
12 | COc1ccc(-c2c(C)c3c4cc(-c5ccc(CN6CCC(S(C)(=O)=O)CC6)cc5)[nH]c4ncc3n(C)c2=O)cc1 [Example 12, 8-(4-Methoxyphenyl)-6,9-dimethyl-2-(4-((4-(methylsulfonyl)piperidin-1-yl)methyl)phenyl)-3,6-dihydro-7H-pyrrolo[3,2-f][1,7]naphthyridin-7-one] | ≤ 100 nM | 100 to 500 nM | ≤ 100 nM | ≤ 100 nM
13 | Cc1c(-c2ccc(C#N)cc2)c(=O)n(C)c2cnc3[nH]c(-c4ccc(CN5CCC(S(C)(=O)=O)CC5)cc4)cc3c12 [Example 13, 4-(6,9-Dimethyl-2-(4-((4-(methylsulfonyl)piperidin-1-yl)methyl)phenyl)-7-oxo-6,7-dihydro-3H-pyrrolo[3,2-f][1,7]naphthyridin-8-yl)benzonitrile] | ≤ 100 nM | 100 to 500 nM | 100 to 500 nM | ≤ 100 nM
